# Legend:
# [1] = test system: HER2+ MBC patients with recurrent brain metastases; experiment: Clinical Trial I: pharmacogenetic association of germline SNPs with PFS/OS during lapatinib monotherapy; type: in vivo, human
# Source text: Candidate genes for this experiment are listed below.
# Cox proportional hazards model with Firth method.
# (GWAS, 1M Genome-Wide SNPs (Illumina human 1M duo)). […] Examined genes were divided into three tiers as follows: […]
# HER2+ MBC patients = experiment: Meta-analysis and GWAS across Trial I and Trial II study-treatment arms; type: in vivo, human; conditions: across the trials or study arms
# Source text: (GWAS, 1M Genome-Wide SNPs (Illumina human 1M duo)). […] Examined genes were divided into three tiers as follows:
# • GWAS SNPs: Bonferroni threshold for significance p=0.05/1M=5×10-8
# [2] = test system: HER2+ MBC patients with disease progression following trastuzumab; conditions: Trial II
# Procedure: Fifty five single nucleotide polymorphisms (SNPs) with functional consequence in 24 candidate genes were evaluated. The assay platform used to genotype these SNPs was the Illumina Human 1M-Duo BeadChip.
# Statistical analysis of genetic associations were evaluated using an additive test. For any significant marker identified from the additive test, specific contrasts of interest between different genotypes will be explored to determine risk genotype(s). Cox proportional hazards model with Firth method. Any covariate significant at p≦0.05 in the multivariate Cox model will be included.
# Testing for associations of SNPs with progression free survival (PFS) and overall survival (OS) during lapatinib treatment was performed using Cox proportional hazards methods, with covariate adjustment.
# Associations were evaluated using an additive genetic test, using a multivariate Cox proportional hazards model adjusting for significant clinical covariates and race/ethnicity difference. […] The primary endpoints was Progression Free Survival (PFS), where the secondary endpoint was Overall Survival (OS). […] Variants were assigned to tiers for analysis, with different association significance thresholds and these were specified prior to analysis to adjust for number of SNP tests, but not for number of endpoints and groups, as follows: • Candidate genes:
# ABCB1 (P-GP) = ABCB1 (P-GP) (Homo sapiens, UniProt P08183); conditions: cited from earlier work
# ABCG2 (BCRP) = target: T1, ABCG2 (BCRP) (Homo sapiens, UniProt Q9UNQ0); conditions: cited from earlier work
# T1 sequence (Q9UNQ0 1-655): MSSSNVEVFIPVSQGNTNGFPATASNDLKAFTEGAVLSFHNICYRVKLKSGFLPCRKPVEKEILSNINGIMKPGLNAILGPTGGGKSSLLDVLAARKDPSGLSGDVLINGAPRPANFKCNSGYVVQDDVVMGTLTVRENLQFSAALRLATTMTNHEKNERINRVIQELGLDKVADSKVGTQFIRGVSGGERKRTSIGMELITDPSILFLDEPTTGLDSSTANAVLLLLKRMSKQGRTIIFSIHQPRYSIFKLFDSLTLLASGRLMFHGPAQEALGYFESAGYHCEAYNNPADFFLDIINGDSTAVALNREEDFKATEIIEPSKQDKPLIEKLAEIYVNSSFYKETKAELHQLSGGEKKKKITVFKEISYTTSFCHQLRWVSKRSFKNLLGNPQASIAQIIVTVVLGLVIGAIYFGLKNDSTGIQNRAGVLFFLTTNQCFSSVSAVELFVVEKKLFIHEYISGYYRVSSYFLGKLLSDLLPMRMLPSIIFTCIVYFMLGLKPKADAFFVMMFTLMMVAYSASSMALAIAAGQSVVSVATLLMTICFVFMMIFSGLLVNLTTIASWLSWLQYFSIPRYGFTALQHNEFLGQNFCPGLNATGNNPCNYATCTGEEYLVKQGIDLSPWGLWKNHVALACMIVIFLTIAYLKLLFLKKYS
# CYP3A4 = CYP3A4 (Homo sapiens, UniProt P08684); conditions: cited from earlier work
# Chain of CYP3A4 (P08684 whole entry): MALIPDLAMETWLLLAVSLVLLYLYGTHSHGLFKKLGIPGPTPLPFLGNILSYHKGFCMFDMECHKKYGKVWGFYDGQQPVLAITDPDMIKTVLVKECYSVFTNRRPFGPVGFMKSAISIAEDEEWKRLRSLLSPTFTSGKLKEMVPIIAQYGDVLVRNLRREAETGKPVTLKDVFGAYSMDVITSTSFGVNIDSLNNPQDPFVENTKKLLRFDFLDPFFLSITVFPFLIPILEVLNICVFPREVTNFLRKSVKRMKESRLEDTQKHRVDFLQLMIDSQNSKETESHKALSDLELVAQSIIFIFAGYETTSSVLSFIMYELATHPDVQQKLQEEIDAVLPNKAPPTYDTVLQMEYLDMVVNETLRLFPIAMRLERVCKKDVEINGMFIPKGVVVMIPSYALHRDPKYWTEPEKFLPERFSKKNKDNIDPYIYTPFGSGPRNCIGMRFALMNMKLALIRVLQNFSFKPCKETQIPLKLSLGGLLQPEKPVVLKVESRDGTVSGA
# Chain of ABCB1 (P-GP) (P08183 whole entry): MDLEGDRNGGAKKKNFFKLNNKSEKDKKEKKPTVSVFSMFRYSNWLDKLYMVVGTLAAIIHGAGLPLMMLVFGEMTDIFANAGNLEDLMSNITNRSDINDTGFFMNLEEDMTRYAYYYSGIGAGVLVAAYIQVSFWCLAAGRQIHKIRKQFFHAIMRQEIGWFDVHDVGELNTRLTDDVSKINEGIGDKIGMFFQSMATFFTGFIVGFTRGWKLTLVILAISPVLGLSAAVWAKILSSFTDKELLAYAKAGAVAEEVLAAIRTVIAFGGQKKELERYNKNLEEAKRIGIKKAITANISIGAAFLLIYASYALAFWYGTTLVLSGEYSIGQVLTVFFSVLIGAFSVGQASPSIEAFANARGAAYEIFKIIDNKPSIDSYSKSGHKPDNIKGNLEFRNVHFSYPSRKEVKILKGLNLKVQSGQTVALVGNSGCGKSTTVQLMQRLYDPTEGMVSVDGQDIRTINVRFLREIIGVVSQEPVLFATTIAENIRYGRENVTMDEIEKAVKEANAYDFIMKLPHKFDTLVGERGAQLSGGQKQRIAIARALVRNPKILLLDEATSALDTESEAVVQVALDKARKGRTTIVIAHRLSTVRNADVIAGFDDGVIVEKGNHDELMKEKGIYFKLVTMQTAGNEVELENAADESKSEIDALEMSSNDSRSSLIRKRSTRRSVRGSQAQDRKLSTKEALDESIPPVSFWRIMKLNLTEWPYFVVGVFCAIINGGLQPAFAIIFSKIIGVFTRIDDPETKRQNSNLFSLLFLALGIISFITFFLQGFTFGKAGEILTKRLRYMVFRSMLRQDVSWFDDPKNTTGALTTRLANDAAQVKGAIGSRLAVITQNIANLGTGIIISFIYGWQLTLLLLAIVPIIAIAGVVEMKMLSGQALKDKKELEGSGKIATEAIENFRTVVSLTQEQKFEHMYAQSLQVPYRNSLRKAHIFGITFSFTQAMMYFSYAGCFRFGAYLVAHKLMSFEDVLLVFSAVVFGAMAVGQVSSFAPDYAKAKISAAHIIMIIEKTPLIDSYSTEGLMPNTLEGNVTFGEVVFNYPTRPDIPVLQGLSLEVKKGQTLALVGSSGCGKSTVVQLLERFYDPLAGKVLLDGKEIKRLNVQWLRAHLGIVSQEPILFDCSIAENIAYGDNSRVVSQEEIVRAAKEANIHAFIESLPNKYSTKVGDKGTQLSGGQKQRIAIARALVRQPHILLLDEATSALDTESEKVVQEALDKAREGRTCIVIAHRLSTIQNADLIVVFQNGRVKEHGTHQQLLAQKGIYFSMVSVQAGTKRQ
compound,measurement,setting,value
"CS(=O)(=O)CCNCc1ccc(-c2ccc3ncnc(Nc4ccc(OCc5cccc(F)c5)c(Cl)c4)c3c2)o1 [lapatinib, N-(3-chloro-4-{[(3-fluorophenyl)methyl]oxy}phenyl)-6-[5-({[2-(methylsulfonyl)ethyl]amino}methyl)-2-furanyl]-4-quinazolinamine]",association of VEGFR2 rs1870377 18487A>T with OS,[1],not seen
same,association of SNPs with progression-free survival (PFS),[1]; 55 SNPs in 24 candidate genes,No SNPs were statistically significantly associated
same,"allelic hazard ratio for overall survival (OS), VEGFA rs3025039 936C>T","[1]; lapatinib monotherapy, improved OS for T allele carriers, range in brackets",0.21 (0.08-0.52)
same,GWAS signals (p<5×10-8) with common markers (MAF>5%),HER2+ MBC patients,no strong signals
same,association of VEGFA rs3025039 936C>T with OS,[2],not seen
same,association of SNPs with progression-free survival (PFS),[2]; 55 SNPs in 24 candidate genes,No SNPs were statistically significantly associated
same,"allelic hazard ratio for OS, VEGFR2 rs1870377 18487A>T Q472H","[2]; T allele carriers showing improved OS, range in brackets",0.47 (0.3-0.73)
same,"allelic hazard ratio for OS, carriage of either IGFR1 minor allele (rs2037448 or rs7181022) vs wild type","[2]; carriers have poorer OS, range in brackets",5.0 (2.2-10.0)
same,substrate status,ABCB1 (P-GP),(P-GP) lapatinib is substrate
same,substrate status,ABCG2 (BCRP),(BCRP) lapatinib is substrate
same,inhibitor status,CYP3A4,inhibitor
same,substrate status,CYP3A4,substrate

# From patent publication US20150023953A1, “METHOD OF TREATING CANCER” (priority 2012, published 2015)
